Results from the supplement of paper PMC10307832.

What was measured:
Assay in all cases: relative viability (nuclei count vs DMSO), 5 days (fraction); higher = more cells survive
Gemcitabine + Luminespib = compound: Nc1ccn([C@@H]2O[C@H](CO)[C@@H](O)C2(F)F)c(=O)n1 [Gemcitabine] + CCNC(=O)c1noc(-c2cc(C(C)C)c(O)cc2O)c1-c1ccc(CN2CCOCC2)cc1 [Luminespib] (partner 0.01 µM)
Summary of the method: (§1)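 Nuclei were stained with Hoechst during a one-step fixation (final 0.05% Triton X-100, 1% formaldehyde, 1 ug/ml Hoechst) carried out 5 days after dosing, then counted on 4× images. The cells, lung cancer lines in 1536-well plates, had been dosed by pin tool the day after seeding with one drug alone or a fixed anchor-drug dose plus five library-drug doses (not always all listed) in √10 steps. Relative viability is the nuclei count in treated wells divided by that in vehicle wells, and each value is the median of duplicate plates.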

Gemcitabine + Lapatinib = compound: Nc1ccn([C@@H]2O[C@H](CO)[C@@H](O)C2(F)F)c(=O)n1 [Gemcitabine] + CS(=O)(=O)CCNCc1ccc(-c2ccc3ncnc(Nc4ccc(OCc5cccc(F)c5)c(Cl)c4)c3c2)o1 [Lapatinib] (partner 2 µM)
Summary of the method: as §1

Gemcitabine + Decitabine = compound: Nc1ccn([C@@H]2O[C@H](CO)[C@@H](O)C2(F)F)c(=O)n1 [Gemcitabine] + Nc1ncn([C@H]2C[C@H](O)[C@@H](CO)O2)c(=O)n1 [Decitabine] (partner 2 µM)
Summary of the method: as §1

Gemcitabine + Olaparib = compound: Nc1ccn([C@@H]2O[C@H](CO)[C@@H](O)C2(F)F)c(=O)n1 [Gemcitabine] + O=C(c1cc(Cc2n[nH]c(=O)c3ccccc23)ccc1F)N1CCN(C(=O)C2CC2)CC1 [Olaparib] (partner 8 µM)
Summary of the method: as §1

Cell Line | relative viability (Gemcitabine + Luminespib; first compound 0.001 µM) | relative viability (Gemcitabine + Luminespib; first compound 0.003162 µM) | relative viability (Gemcitabine + Luminespib; first compound 0.01 µM) | relative viability (Gemcitabine + Luminespib; first compound 0.03162 µM) | relative viability (Gemcitabine + Luminespib; first compound 0.1 µM) | relative viability (Gemcitabine + Lapatinib; first compound 0.001 µM) | relative viability (Gemcitabine + Lapatinib; first compound 0.003162 µM) | relative viability (Gemcitabine + Lapatinib; first compound 0.01 µM) | relative viability (Gemcitabine + Lapatinib; first compound 0.03162 µM) | relative viability (Gemcitabine + Lapatinib; first compound 0.1 µM) | relative viability (Gemcitabine + Decitabine; first compound 0.001 µM) | relative viability (Gemcitabine + Decitabine; first compound 0.003162 µM) | relative viability (Gemcitabine + Decitabine; first compound 0.01 µM) | relative viability (Gemcitabine + Decitabine; first compound 0.03162 µM) | relative viability (Gemcitabine + Decitabine; first compound 0.1 µM) | relative viability (Gemcitabine + Olaparib; first compound 0.001 µM) | relative viability (Gemcitabine + Olaparib; first compound 0.003162 µM) | relative viability (Gemcitabine + Olaparib; first compound 0.01 µM) | relative viability (Gemcitabine + Olaparib; first compound 0.03162 µM) | relative viability (Gemcitabine + Olaparib; first compound 0.1 µM)
NCI-H1437 | 1.08 | 1.02 | 0.645 | 0.391 | 0.191 | 0.828 | 0.737 | 0.402 | 0.157 | 0.0977 | 0.572 | 0.553 | 0.515 | 0.364 | 0.269 | 0.622 | 0.781 | 0.488 | 0.325 | 0.225
NCI-H2009 | 1.08 | 0.751 | 0.325 | 0.179 | 0.126 | 0.929 | 0.624 | 0.205 | 0.129 | 0.192 | 0.363 | 0.264 | 0.233 | 0.141 | 0.114 | 0.717 | 0.436 | 0.191 | 0.102 | 0.0738
NCI-H1651 | 0.906 | 0.893 | 0.731 | 0.278 | 0.134 | 0.863 | 1 | 0.678 | 0.165 | 0.0838 | 0.639 | 0.406 | 0.596 | 0.509 | 0.172 | 0.182 | 0.193 | 0.187 | 0.138 | 0.075
NCI-H1666 | 1.01 | 0.937 | 0.957 | 0.595 | 0.393 | 0.617 | 0.708 | 0.512 | 0.265 | 0.239 | 0.686 | 0.55 | 0.712 | 0.538 | 0.447 | 0.777 | 0.707 | 0.748 | 0.76 | 0.597
NCI-H1734 | 0.159 | 0.157 | 0.119 | 0.136 | 0.119 | 0.985 | 0.97 | 0.421 | 0.165 | 0.0939 | 0.536 | 0.343 | 0.192 | 0.134 | 0.102 | 0.535 | 0.348 | 0.183 | 0.111 | 0.102
EPLC-272H | 0.145 | 0.323 | 0.337 | 0.16 | 0.135 | 1.08 | 0.257 | 0.664 | 0.19 | 0.0848 | 0.389 | 0.353 | 0.305 | 0.224 | 0.0962 | 0.967 | 0.545 | 0.221 | 0.0733 | 0.0557
NCI-H2023 | 0.96 | 0.755 | 0.623 | 0.141 | 0.0596 | 1.04 | 0.99 | 0.424 | 0.127 | 0.0738 | 0.224 | 0.217 | 0.126 | 0.0929 | 0.0689 | 0.505 | 0.414 | 0.236 | 0.161 | 0.0679
BEN | 0.528 | 0.317 | 0.14 | 0.12 | 0.107 | 0.625 | 0.529 | 0.197 | 0.112 | 0.108 | 0.698 | 0.456 | 0.413 | 0.249 | 0.257 | 0.946 | 0.421 | 0.234 | 0.193 | 0.145
COR-L 105 | 0.886 | 0.793 | 0.571 | 0.275 | 0.188 | 0.362 | 0.355 | 0.314 | 0.302 | 0.269 | 0.68 | 0.596 | 0.46 | 0.37 | 0.3 | 0.692 | 0.774 | 0.625 | 0.357 | 0.282
ABC-1 | 0.618 | 1.05 | 0.371 | 0.25 | 0.151 | 1.14 | 1.2 | 0.95 | 0.88 | 0.664 | – | 0.798 | 1.07 | 0.497 | 0.436 | – | 0.687 | 0.54 | 0.427 | 0.398
HCC-15 | 0.305 | 0.234 | 0.32 | 0.15 | 0.0821 | 0.918 | 0.88 | 0.829 | 0.55 | 0.121 | 0.622 | 0.67 | 0.612 | 0.226 | 0.107 | 0.831 | 0.73 | 0.625 | 0.175 | 0.103
NCI-H2170 | 0.564 | 0.633 | 0.575 | 0.169 | 0.151 | 0.282 | 0.271 | 0.244 | 0.197 | 0.185 | 0.457 | 0.455 | 0.349 | 0.201 | 0.126 | 0.591 | 0.636 | 0.258 | 0.091 | 0.104
PC-3 [JPC-3] | 0.79 | 0.685 | 0.415 | 0.349 | 0.314 | 0.468 | 0.416 | 0.424 | 0.278 | 0.266 | 0.935 | 0.573 | 0.602 | 0.524 | 0.465 | 1.24 | 0.614 | 0.49 | 0.478 | 0.349
NCI-H1993 | 0.61 | 0.85 | 0.579 | 0.508 | 0.45 | 0.77 | 0.769 | 0.853 | 0.546 | 0.495 | 0.549 | 0.524 | 0.564 | 0.44 | 0.356 | 1.01 | 0.908 | 0.519 | 0.412 | 0.428
NCI-H358 | 0.778 | 0.294 | 0.126 | 0.121 | 0.114 | 0.436 | 0.398 | 0.203 | 0.212 | 0.156 | 0.188 | 0.171 | 0.151 | 0.102 | 0.105 | 0.689 | 0.321 | 0.146 | 0.101 | 0.0993
NCI-H1915 | 0.826 | 0.759 | 0.693 | 0.669 | 0.356 | 0.938 | 0.877 | 0.949 | 0.925 | 0.597 | 0.255 | 0.262 | 0.254 | 0.258 | 0.182 | 0.246 | 0.255 | 0.258 | 0.233 | 0.192
